According to a melting point compilation (Tetko et al.):

Row | Compound | melting point [°C]
1 | Cc1cc(OC(C)C(=O)O)ccc1C(C)C (stereo unspecified) | 92 to 94
2 | COc1ccc(S(=O)(=O)N2CCC(=NO)CC2)cc1 | 164 to 166
3 | Cc1nn(C)c2ncc(S(=O)(=O)Cl)cc12 | 134 to 136
4 | O=C(O)c1ccc(Cl)c(N2CCNC2=O)c1 | 290 to 292
5 | NC(=O)c1c(F)cc(Br)cc1F | 172 to 174
6 | CNC(=O)c1cc(Oc2cccc(O)c2)ccn1 | 124 to 126
7 | O=C(c1ccc(Cl)nc1)N1CCc2ccccc21 | 132 to 134
8 | c1ccc2sc(C3CCCCN3)nc2c1 (stereo unspecified) | 200 to 202
9 | Cc1cc(Cl)c([N+](=O)[O-])cc1S(=O)(=O)Cl | 116 to 118
10 | CC1(c2ccc3c(c2)OCCO3)NC(=O)NC1=O (stereo unspecified) | 180 to 182
11 | Clc1ccc(OCCBr)c(Br)c1 | 30 to 32
12 | O=C(O)COc1ccc(C(=O)c2ccccc2Cl)cc1 | 141 to 143
13 | CCC(=O)c1ccccc1OC(F)F | 30 to 32
14 | Nc1nc2nc(-c3cccs3)cc(C(F)(F)F)c2s1 | 243 to 245
15 | COC(=O)c1sc2nc(CCl)[nH]c(=O)c2c1C | 276 to 278
16 | COc1ccccc1N(C)S(=O)(=O)c1ccc(C)c(C(=O)O)c1 | 153 to 155
17 | CCCC1NC(=O)NC1=O (stereo unspecified) | 132 to 136
18 | Cc1ccc(O)c(C(=O)N2CCSCC2)c1 | 155 to 157
19 | O=C(c1ccccc1)c1ccc(CBr)cc1 | 109 to 112
20 | O=C(CBr)c1ccc(S(=O)(=O)N2CCCCC2)cc1 | 108 to 110
21 | O=C(O)c1cn(Cc2ccccc2)nc1-c1cccs1 | 131 to 133
22 | O=C(O)Cc1ccc(NC(=O)c2cccc(Br)c2)cc1 | 246 to 248
23 | O=C(O)CN1C(=O)NC2(CCCC2)C1=O | 165 to 167
24 | CSc1nc2nc(C)c(CC(=O)O)c(C)n2n1 | 275 to 277
25 | Nc1ccc(CSc2ccccn2)cc1 | 103 to 105
26 | Cc1nc(Cl)nc(N(C)C)n1 | 81 to 83

Row | Compound | melting point [°C]
27 | COC(=O)C(N)c1cccnc1 (stereo unspecified) | 61 to 63
28 | O=C(O)CCCCCN1C(=O)CSC1=S | 85 to 87
29 | NC(CC1CCOC1)C(=O)O (stereo unspecified) | 269 to 271
30 | O=C(O)c1ccccc1-c1ncc(-c2ccccc2F)o1 | 184 to 186
31 | CC1CCc2c(sc3nc(C(C)Cl)[nH]c(=O)c23)C1 (stereo unspecified) | 248 to 250
32 | Cc1nn(C)c2c1NC(=O)CS2 | 197 to 199
33 | Cc1nn(C)c(Br)c1C#N | 109 to 111
34 | CCc1c(-c2ccc(Br)cc2)n[nH]c1N | 94 to 96
35 | CC(C)(C)C(=O)NC1CCCNC1 (stereo unspecified) | 99 to 101
36 | CCc1cc2c(C)cc(=O)oc2cc1O | 216 to 218
37 | CC(C)c1ccc(N)c(C(=O)O)c1 | 96 to 98
38 | O=S(=O)(Cl)N1CC2CCC1C2 (stereo unspecified) | 47 to 49
39 | Cn1[nH]c2c(c1=N)CCC2 | 134 to 136
40 | O=C(O)C1CSCN1C(=O)C1CCC1 (stereo unspecified) | 115 to 117
41 | N#CCCN1C(=O)c2ccccc2C1=O | 153 to 155
42 | Cn1c(=O)cc(N)n(Cc2ccccc2)c1=O | 95 to 99
43 | CCNC(=O)NCc1ccc(N)cc1 | 120 to 122
44 | O=C(O)c1cc(-c2ccc(Cl)cc2)nn1-c1ccccc1 | 214 to 216
45 | CCC1(C)NC(=O)N(CCCN)C1=O (stereo unspecified) | 63 to 65
46 | O=C(O)c1c(Cl)cc(C(F)(F)F)cc1Cl | 140 to 142
47 | CCCCCCC(NC)C(=O)O (stereo unspecified) | 259 to 261
48 | NC1CCN(c2ccccc2F)C1=O (stereo unspecified) | 67 to 69
49 | Cc1ccc(C(=O)O)c(O)c1C | 197 to 199
50 | Cc1cc(Br)cc(C)c1S(=O)(=O)Cl | 49 to 51
51 | O=C(Nc1ccccc1C(=O)O)c1ccccc1Br | 201 to 203
52 | O=Cc1ccc(-c2c(F)cccc2F)o1 | 51 to 53

Row | Compound | melting point [°C]
53 | CC(=O)OCC(=O)[C@@]1(O)CC[C@H]2[C@@H]3CCC4=CC(=O)CC[C@]4(C)[C@H]3[C@@H](O)C[C@@]21C | 219 to 221
54 | N#Cc1ccccc1CS(=O)(=O)Cl | 85 to 87
55 | O=C(O)C1CCN(c2ccccc2[N+](=O)[O-])CC1 | 158 to 160
56 | O=C(O)c1cnn(Cc2ccccc2Cl)c1 | 144 to 146
57 | O=C(O)CCc1ccc(S(=O)(=O)Cl)cc1 | 157 to 159
58 | O=C(O)CN1C(=O)C2CC=CCC2C1=O (stereo unspecified) | 83 to 85
59 | C=CCN1C(=O)C(=O)N(CC(=O)O)C1=O | 143 to 145
60 | Nc1ccc(S(N)(=O)=O)cc1N | 145 to 154
61 | CCOC(=O)C1=C(C)NN=C(C)C1 | 99 to 101
62 | COC(=O)C(C#N)=NO | 122 to 124
63 | O=C(O)/C=C/S(=O)(=O)c1ccccc1 | 190 to 192
64 | O=C(O)c1ccc(Nc2ccccc2)c([N+](=O)[O-])c1 | 250 to 252
65 | O=C(O)C1CCCN1C(=O)c1ccc([N+](=O)[O-])s1 (stereo unspecified) | 161 to 163
66 | O=C(O)c1cc(S(=O)(=O)Cl)cc(F)c1F | 111 to 113
67 | CN1CCC(Nc2ccccc2N)CC1 | 86 to 88
68 | Nc1ccccc1OCC(=O)N1CCOCC1 | 111 to 113
69 | O=[N+]([O-])c1ccc(-c2noc(Cl)n2)cc1 | 118 to 120
70 | O=C(O)c1ccn(-c2c(Cl)cc([N+](=O)[O-])cc2Cl)n1 | 206 to 208
71 | O=Cc1ccc(-c2ccc(Cl)cc2)s1 | 83 to 87
72 | OC(Cn1cncn1)c1ccc(Cl)cc1 (stereo unspecified) | 111 to 113
73 | NNC(=O)c1ccc2c(c1)OCCO2 | 142 to 144
74 | Cc1ccc(C(N)CC(=O)O)o1 (stereo unspecified) | 199 to 201
75 | OCCNCc1ccc(Cl)c(Cl)c1 | 54 to 56
76 | NC1CCCS(=O)(=O)c2ccccc21 (stereo unspecified) | 115 to 117
77 | N#CCS(=O)(=O)c1cc(Br)ccc1Br | 134 to 136
78 | CN(C)c1ccnc(C(=O)O)c1 | 234 to 236

Row | Compound | melting point [°C]
79 | CC(Cl)C(=O)N1c2ccccc2CC1C (stereo unspecified) | 135 to 137
80 | Nc1ccc(-n2ccnc2)cc1C(F)(F)F | 109 to 111
81 | Cc1cc(CO)c2ccccc2n1 | 144 to 146
82 | O=C(O)c1[nH]nc(-c2ccccc2)c1Br | 260 to 262
83 | O=C(O)c1ccc(S(=O)(=O)CCO)cc1 | 189 to 191
84 | FC(F)Oc1cccc(-c2ccc(Cl)nn2)c1 | 86 to 88
85 | CCc1c(C(=O)O)cnn1-c1ccccc1 | 159 to 161
86 | CCOC(C)c1nc(C(=O)O)cs1 (stereo unspecified) | 61 to 63
87 | CC1CNc2ccccc2NC1 | 82 to 84
88 | OCc1cccc(F)c1Cl | 34 to 36
89 | N#Cc1cccc(OCC(F)F)n1 | 49 to 51
90 | CN1C(=O)C=C(Br)C1=O | 84 to 86
91 | O=C(O)COC1CCOCC1 | 65 to 67
92 | NC(=O)COc1ccc(C(=O)CCl)cc1 | 163 to 165
93 | CCn1c2ccccc2c2cc(/C=C/C(=O)O)ccc21 | 243 to 245
94 | O=c1[nH]c(-c2ccccc2Cl)cs1 | 182 to 184
95 | Oc1ccc(Nc2nnns2)cc1 | 159 to 161
96 | CN(CC(C)(C)C)C(=O)c1cccc(C(=O)O)c1 | 132 to 134
97 | CN(C)S(=O)(=O)c1ccc(NC(=O)CCl)cc1 | 115 to 117
98 | CCN(CC)S(=O)(=O)c1ccc(C(C)=O)cc1 | 81 to 83
99 | COC(=O)C(Br)CN1C(=O)c2ccccc2C1=O (stereo unspecified) | 99 to 101
100 | COc1ccc(N2CCC(=O)CC2)cc1 | 66 to 68
101 | O=C(O)c1cccc(C(=O)N2CCS(=O)(=O)CC2)n1 | 217 to 219
